Assay results as given in US20200138854A1, “Method of Detecting and Quantifying Bile Acid from Saliva” (Ironwood Pharmaceuticals, Inc., priority 2017, published 2020).
“And” between values parts separate entries of the source, which are not always exact repeats. Equal entries are not always repeated. Where two headings read alike, the source gives them in different places.

Tests used:
[1] = Frozen (−20° C.) short-term stability in cholestyramine-treated human saliva
Protocol: Quality control samples for the evaluation of accuracy and precision and for run acceptance were prepared on the day of sample extraction. QC samples prepared in cholestyramine-treated saliva are to be prepared in small volumes for analysis. Stability for these QC samples would be limited to short-term storage (i.e., 2 days) whereas untreated human saliva would be evaluated for long-term storage.
For stability in cholestyramine-treated human saliva, samples were prepared by spiking cholestyramine-treated human saliva with each analyte at the QC-LLOQ, QC-Low, QC-Mid and QC-High levels. The samples were stored in a −20° C. freezer. After 1 day and 2 days of storage, each sample was extracted in replicates of four for analysis.

[2] = Long-term (1 month at −20° C. and −80° C.) stability in untreated human saliva; settings: nominal 80.0 ng/mL
Protocol: For long-term stability in untreated human saliva, samples were prepared by spiking untreated human saliva with each analyte at the QC-Low and QC-High levels. The samples were stored in a −20° C. freezer and in a −80° C. freezer. After 1 month of storage, each sample was extracted in replicates of three for analysis.
A 100-μL aliquot of sample (calibration standards, quality controls, blanks, and stability samples) was transferred into a 96 well plate, according to a pre-defined layout. […] The plates were covered, vortex-mixed and then centrifuged for 5 minutes at 3200 rpm. Supernatants (350 μL each) were transferred into the corresponding wells of a clean 96 well plate and evaporated to dryness under nitrogen in a Turbovap set to 40° C. The dried residue in each well was reconstituted with 75 μL of 50:50 (v:v) methanol:water.

[3] = nominal 0.500 ng/mL; 1 Day at −20° C.
[4] = nominal 0.500 ng/mL; 2 Days at −20° C.
[5] = nominal 8.00 ng/mL; 1 Day at −20° C.
[6] = nominal 8.00 ng/mL; 2 Days at −20° C.
[7] = nominal 80.0 ng/mL; 1 Day at −20° C.
[8] = nominal 80.0 ng/mL; 2 Days at −20° C.
[9] = 1 Day at −20° C., nominal 0.500 ng/mL
[10] = 1 Day at −20° C., nominal 8.00 ng/mL
[11] = 1 Day at −20° C., nominal 80.0 ng/mL
[12] = 2 Days at −20° C., nominal 0.500 ng/mL
[13] = 2 Days at −20° C., nominal 8.00 ng/mL
[14] = 2 Days at −20° C., nominal 80.0 ng/mL
[15] = 1 month −20° C. storage, untreated human saliva
[16] = 1 month −80° C. storage, untreated human saliva

Which “Short-term stability in cholestyramine-treated human saliva” value [1] does the source give for `C[C@H](CCC(=O)NCCS(=O)(=O)O)[C@H]1CC[C@H]2[C@@H]3[C@H](O)C[C@@H]4C[C@H](O)CC[C@]4(C)[C@H]3CC[C@]12C` [Taurochenodeoxycholic Acid, Taurochenodeoxycholic acid] here?
The value was “up to 2 days”.

And the “Stability in Treated Human Saliva” value [1]?
The value was 2 days.

And the “% Bias QC-LLOQ” value [1, 3]?
Its value is 7.1%.

And the “% CV QC-LLOQ” value [1, 3]?
The value was 2.2%.

What about the “Concentration QC-LLOQ” value ([1]; nominal 0.500 ng/mL; 1 Day at −20° C.; Run 33; cholestyramine-treated human saliva; replicate) of the same compound?
The value was 0.529 ng/mL and 0.542 ng/mL and 0.522 ng/mL and 0.548 ng/mL.

And the “Mean concentration QC-LLOQ” value ([1]; nominal 0.500 ng/mL; 1 Day at −20° C.; n 4)?
Its value is 0.535 ng/mL.

What about the “% Bias QC-LLOQ” value [1, 4] of the same compound?
Its value is 19.6%.

What about the “% CV QC-LLOQ” value [1, 4] of the same compound?
The value was 4.1%.

What about the “Concentration QC-LLOQ” value ([1]; nominal 0.500 ng/mL; 2 Days at −20° C.; Run 33; cholestyramine-treated human saliva; replicate) of the same compound?
The value was 0.608 ng/mL and 0.589 ng/mL and 0.569 ng/mL and 0.626 ng/mL.

What about the “Mean concentration QC-LLOQ” value ([1]; nominal 0.500 ng/mL; 2 Days at −20° C.; n 4) of the same compound?
Its value is 0.598 ng/mL.

What about the “% Bias QC-Mid” value [1, 5] of the same compound?
Its value is −5.4%.

And the “% CV QC-Mid” value [1, 5]?
Its value is 0.9%.

And the “Concentration QC-Mid” value ([1]; nominal 8.00 ng/mL; 1 Day at −20° C.; Run 33; cholestyramine-treated human saliva; replicate)?
The value was 7.59 ng/mL and 7.63 ng/mL and 7.58 ng/mL and 7.47 ng/mL.

And the “Mean concentration QC-Mid” value ([1]; nominal 8.00 ng/mL; 1 Day at −20° C.; n 4)?
Its value is 7.57 ng/mL.

What about the “% Bias QC-Mid” value [1, 6] of the same compound?
The value was −1.8%.

And the “% CV QC-Mid” value [1, 6]?
Its value is 4.0%.

What about the “Concentration QC-Mid” value ([1]; nominal 8.00 ng/mL; 2 Days at −20° C.; Run 33; cholestyramine-treated human saliva; replicate) of the same compound?
The value was 7.42 ng/mL and 8.04 ng/mL and 8.12 ng/mL and 7.83 ng/mL.

And the “Mean concentration QC-Mid” value ([1]; nominal 8.00 ng/mL; 2 Days at −20° C.; n 4)?
The value was 7.85 ng/mL.

And the “% Bias QC-High” value [1, 7]?
The value was −3.3%.

What about the “% CV QC-High” value [1, 7] of the same compound?
The value was 2.9%.

What about the “Concentration QC-High” value ([1]; nominal 80.0 ng/mL; 1 Day at −20° C.; Run 33; cholestyramine-treated human saliva; replicate) of the same compound?
The value was 78.3 ng/mL and 79.8 ng/mL and 74.6 ng/mL and 76.6 ng/mL.

And the “Mean concentration QC-High” value ([1]; nominal 80.0 ng/mL; 1 Day at −20° C.; n 4)?
Its value is 77.3 ng/mL.

And the “% Bias QC-High” value [1, 8]?
The value was −3.8%.

And the “% CV QC-High” value [1, 8]?
Its value is 3.9%.

What about the “Concentration QC-High” value ([1]; nominal 80.0 ng/mL; 2 Days at −20° C.; Run 33; cholestyramine-treated human saliva; replicate) of the same compound?
Its value is 74.4 ng/mL and 78.6 ng/mL and 74.5 ng/mL and 80.3 ng/mL.

What about the “Mean concentration QC-High” value ([1]; nominal 80.0 ng/mL; 2 Days at −20° C.; n 4) of the same compound?
The value was 77.0 ng/mL.

What about the “Fresh QCs (Batch 34) Mean at Time Zero, QC-High” value (from here on “Fresh QCs (Batch 34) Mean”) ([2]; reference for −20° C. Storage, untreated human saliva) of the same compound?
Its value is 84.5 ng/mL.

And the “Fresh QCs (Batch 34) Mean” value ([2]; reference for −80° C. Storage, untreated human saliva)?
The value was 84.5 ng/mL.

What about the “% Bias QC-High” value ([2]; −20° C. Storage, 1 month) of the same compound?
The value was 1.0%.

And the “% CV QC-High” value ([2]; −20° C. Storage, 1 month)?
The value was 2.5%.

And the “Difference from Fresh (%) QC-High” value ([2]; −20° C. Storage, 1 month)?
Its value is −4.3%.

And the “Mean concentration QC-High” value ([2]; −20° C. Storage, 1 month, n 3)?
The value was 80.8 ng/mL.

What about the “Concentration QC-High” value ([2]; −20° C. Storage, 1 month, untreated human saliva, Run 35, replicate) of the same compound?
Its value is 79.1 ng/mL and 83.0 ng/mL and 80.4 ng/mL.

What about the “% Bias QC-High” value ([2]; −80° C. Storage, 1 month) of the same compound?
The value was 1.0%.

What about the “% CV QC-High” value ([2]; −80° C. Storage, 1 month) of the same compound?
The value was 4.7%.

What about the “Difference from Fresh (%) QC-High” value ([2]; −80° C. Storage, 1 month) of the same compound?
Its value is −4.3%.

And the “Mean concentration QC-High” value ([2]; −80° C. Storage, 1 month, n 3)?
Its value is 80.8 ng/mL.

And the “Concentration QC-High” value ([2]; −80° C. Storage, 1 month, untreated human saliva, Run 35, replicate)?
Its value is 84.4 ng/mL and 81.2 ng/mL and 76.9 ng/mL.

For `C[C@H](CCC(=O)NCCS(=O)(=O)O)[C@H]1CC[C@H]2[C@@H]3[C@H](O)C[C@@H]4C[C@H](O)CC[C@]4(C)[C@H]3C[C@H](O)[C@]12C` [Taurocholic Acid, Taurocholic acid], which “% Bias QC-LLOQ” value [1, 9] is on record?
The value was −1.1%.

What about the “% CV QC-LLOQ” value [1, 9] of the same compound?
The value was 2.4%.

And the “Mean concentration QC-LLOQ” value [1, 9]?
Its value is 0.495 ng/mL.

What about the “Concentration QC-LLOQ” value ([1]; 1 Day at −20° C., nominal 0.500 ng/mL, run 33) of the same compound?
Its value is 0.481 ng/mL and 0.509 ng/mL and 0.491 ng/mL and 0.498 ng/mL.

What about the “% Bias QC-Mid” value [1, 10] of the same compound?
Its value is −8.4%.

And the “% CV QC-Mid” value [1, 10]?
The value was 1.9%.

And the “Mean concentration QC-Mid” value [1, 10]?
The value was 7.33 ng/mL.

And the “Concentration QC-Mid” value ([1]; 1 Day at −20° C., nominal 8.00 ng/mL, run 33)?
The value was 7.32 ng/mL and 7.29 ng/mL and 7.51 ng/mL and 7.18 ng/mL.

What about the “% Bias QC-High” value [1, 11] of the same compound?
Its value is −6.6%.

And the “% CV QC-High” value [1, 11]?
The value was 2.7%.

And the “Mean concentration QC-High” value [1, 11]?
The value was 74.7 ng/mL.

What about the “Concentration QC-High” value ([1]; 1 Day at −20° C., nominal 80.0 ng/mL, run 33) of the same compound?
Its value is 74.9 ng/mL and 77.2 ng/mL and 72.3 ng/mL and 74.5 ng/mL.

And the “% Bias QC-LLOQ” value [1, 12]?
The value was 11.2%.

What about the “% CV QC-LLOQ” value [1, 12] of the same compound?
The value was 4.1%.

What about the “Mean concentration QC-LLOQ” value [1, 12] of the same compound?
The value was 0.556 ng/mL.

And the “Concentration QC-LLOQ” value ([1]; 2 Days at −20° C., nominal 0.500 ng/mL, run 33)?
The value was 0.538 ng/mL and 0.563 ng/mL and 0.537 ng/mL and 0.585 ng/mL.

What about the “% Bias QC-Mid” value [1, 13] of the same compound?
Its value is −6.7%.

And the “% CV QC-Mid” value [1, 13]?
The value was 4.8%.

And the “Mean concentration QC-Mid” value [1, 13]?
Its value is 7.46 ng/mL.

And the “Concentration QC-Mid” value ([1]; 2 Days at −20° C., nominal 8.00 ng/mL, run 33)?
The value was 6.98 ng/mL and 7.47 ng/mL and 7.55 ng/mL and 7.85 ng/mL.

What about the “% Bias QC-High” value [1, 14] of the same compound?
Its value is −6.7%.

What about the “% CV QC-High” value [1, 14] of the same compound?
Its value is 2.1%.

And the “Mean concentration QC-High” value [1, 14]?
The value was 74.7 ng/mL.

What about the “Concentration QC-High” value ([1]; 2 Days at −20° C., nominal 80.0 ng/mL, run 33) of the same compound?
The value was 73.1 ng/mL and 75.1 ng/mL and 73.8 ng/mL and 76.6 ng/mL.

And the “Short-term stability in cholestyramine-treated human saliva” value ([1]; at −20° C.)?
Its value is “up to 2 days”.

What about the “Stability in Treated Human Saliva” value ([1]; at −20° C.; cholestyramine-treated human saliva) of the same compound?
Its value is 2 days.

And the “% Bias QC-High” value [2, 15]?
The value was −2.9%.

And the “% CV QC-High” value [2, 15]?
The value was 3.0%.

What about the “Difference from Fresh (%) QC-High” value [2, 15] of the same compound?
Its value is −4.5%.

What about the “Mean concentration QC-High” value [2, 15] of the same compound?
The value was 77.7 ng/mL.

What about the “Concentration QC-High” value ([2]; 1 month −20° C. storage, untreated human saliva, run 35) of the same compound?
The value was 75.1 ng/mL and 78.3 ng/mL and 79.7 ng/mL.

And the “% Bias QC-High” value [2, 16]?
Its value is −2.3%.

What about the “% CV QC-High” value [2, 16] of the same compound?
The value was 3.7%.

What about the “Difference from Fresh (%) QC-High” value [2, 16] of the same compound?
The value was −4.0%.

And the “Mean concentration QC-High” value [2, 16]?
Its value is 78.1 ng/mL.

And the “Concentration QC-High” value ([2]; 1 month −80° C. storage, untreated human saliva, run 35)?
The value was 81.2 ng/mL and 77.8 ng/mL and 75.4 ng/mL.

And the “Fresh QCs (Batch 34) Mean” value ([2]; reference for −20° C. storage, untreated human saliva)?
The value was 81.4 ng/mL.

What about the “Fresh QCs (Batch 34) Mean” value ([2]; reference for −80° C. storage, untreated human saliva) of the same compound?
The value was 81.4 ng/mL.
